In PMC4291531 (The Journal of Experimental Medicine, 2015):

T1: human MD-2 (Homo sapiens, UniProt Q9Y6Y9)
T1 sequence (Q9Y6Y9 19-160): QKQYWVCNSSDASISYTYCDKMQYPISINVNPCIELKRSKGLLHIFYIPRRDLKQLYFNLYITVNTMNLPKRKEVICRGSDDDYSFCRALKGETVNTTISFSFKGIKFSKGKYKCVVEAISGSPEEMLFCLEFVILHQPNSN

B1: Hg-HMGB1: HMGB1 with mercury thiolate on cysteine at position 106 (protein, UniProt P09429 1-215, looked up)
High mobility group protein B1: MGKGDPKKPRGKMSSYAFFVQTCREEHKKKHPDASVNFSEFSKKCSERWKTMSAKEKGKFEDMAKADKARYEREMKTYIPPKGETKKKFKDPNAPKRPPSAFFLFCSEYRPKIKGEHPGLSIGDVAKKLGEMWNNTAADDKQPYEKKAAKLKEKYEKDIAAYRAKGKPDAAKKGVVKAEKSKKKKEEEEDEEDEEDEEEEEDEEDEDEEEDDDDE
modifications: mercury thiolate on C106

Experiments:
WT or MD-2 KO mice = experiment: APAP hepatotoxicity in WT or MD-2 KO mice; format: in vivo, mouse
[1] = target: human MD-2 (myeloid differentiation factor 2) (human) (UniProt Q9Y6Y9); experiment: SPR
human MD-2 = target: T1, human MD-2; experiment: SPR; format: binding; conditions: MD-2 coated on chip; for reduction in MD-2 binding as compared with disulfide HMGB1: SPR, HMGB1 isoforms
immune cells = conditions: ref Tang et al., 2012, Venereau et al.; cited from earlier work
RAW 264.7 cells = experiment: TNF release from RAW 264.7 cells stimulated with HMGB1 isoforms; conditions: 1 µg/ml, 16 h, n = 3–5 experiments
[2] = system: thioglycollate-elicited peritoneal macrophages (WT and MD-2 KO); format: cell-based; conditions: MD-2 KO vs WT macrophages; mouse cytokine antibody array

| Molecule | reduction in MD-2 binding as compared with disulfide HMGB1 (human MD-2) | extracellular chemokine/cytokine activity (in words) (immune cells) | TNF release induced by HMGB1 isoform (RAW 264.7 cells) | also measured |
| --- | --- | --- | --- | --- |
| CC(=O)Nc1ccc(O)cc1 [APAP, acetaminophen] | – | – | – | serum HMGB1 levels, WT and MD-2 KO mice (WT or MD-2 KO mice; 24 h after APAP): comparably elevated in WT and MD-2 KO mice; APAP acute hepatic injury (GLDH, AST, ALT, necrosis), MD-2 KO vs WT (WT or MD-2 KO mice; APAP 400 mg/kg i.p., 24 h, n = 5–13 mice per group): significant reduction in acute hepatic injury; cytokine release and APAP-induced lethality, MD-2 KO vs WT (WT or MD-2 KO mice; APAP i.p. 400 mg/kg (serum, 24 h), 350 mg/kg (survival, n = 15)): significant reduction in cytokine (TNF and IL-6) release and APAP-induced animal lethality |
| disulfide HMGB1 (from UniProt P63159 1-215) (natural protein) | – | – | – | Kd [1]: 12 nM |
| sulfonyl HMGB1: HMGB1 with all cysteines terminally oxidized | > 1,000 fold | devoid of chemotactic and cytokine activities | failed to induce TNF release | – |
| fully reduced HMGB1: HMGB1 with all cysteine residues reduced (DTT-reduced) | > 1,000 fold | binds to CXCL12 and stimulates immune cell infiltration via the CXCR4 receptor | failed to induce TNF release | – |
| sulfonyl HMGB1 (from UniProt P63159 1-215) (natural protein) | – | – | – | fold reduction in MD-2 binding against disulfide HMGB1 [1]: > 1000 fold |
| H2S-modified HMGB1: HMGB1 S-sulfhydrated by incubation with 5 mM NaSH for 3 h at room temperature | > 1,000 fold | – | failed to induce TNF release | – |
| disulfide HMGB1: recombinant cytokine-stimulating HMGB1; disulfide bond between cysteines 23 and 45 and reduced thiol on cysteine 106 | – | activates immune cells to produce cytokines/chemokines via the TLR4 receptor | induced TNF secretion | MD-2 binding (in words) (human MD-2; SPR Biacore): binds to MD-2 with high affinity; release of IL-12/p40 stimulated with HMGB1 [2]: via an MD-2–independent mechanism |
| B1 | – | – | Noncytokine-inducing | – |
